Test [1] concerns collagenase promoter AP-1 site (RARβ). Nature of the test: -73Col-CAT reporter co-transfected with RARβ expression vector in HeLa cells, TPA induced CAT activity. The test is classed as cell-based. The method, then:
The −73 Col CAT reporter gene was cotransfected into HeLa with an expression vector for RARβ/ε. Cells were grown in the presence of the indicated amounts of RA and/or TPA.

Test [2] deals with collagenase promoter lacking AP-1 site (-63Col-CAT). Kind of test: -63Col-CAT reporter co-transfected with RARβ in HeLa cells. It counts as cell-based. To be noted: presence or absence of RA.
For test [3], the system named is TPA induced collagenase promoter activity (TRα). Kind of test: -73 Col CAT reporter in CV-1 cells, T3 dependent repression by TRα. The test is classed as cell-based. The method, then: In addition, applicants have discovered that the thyroid hormone receptor, in the presence of Thyroid hormone, binds AP-1 through a protein/protein interaction and inhibits the transcription of AP-1 activated genes. Specifically, TRα represses TPA induced collagenase promoter activity in a T3 dependent fashion. The −73 Col CAT reporter gene was cotransfected into CV-1 cells with an expression vector for […]. Cells were grown in the presence of the indicated amounts of T3 and/or TPA.

For test [4], the target named is T1, cJun binding to the AP-1 site (Homo sapiens, UniProt P05412).
T1 construct: made in house; host or cells: cell-free (in vitro) translation or bacteria
Nature of the test: Gel retardation assay, effect on cJun binding to the AP-1 site. The following applies: one-fold or five-fold excess, 37° C. for 15 minutes. The method, then:
In vitro synthesized cJun protein was incubated with one-fold (1) or five-fold (5) excess of in vitro synthesized RARβ or RARγ protein at 37° C. for 15 minutes. The effect of RARβ or RARγ or cJun binding was analyzed by gel retardation assay.
The Inhibition of cJun binding to the AP-1 site was dependent on the amount of RARs used, and was also observed in response to pre-incubation with in vitro synthesized GR (FIG. 4). As shown for the GRs in Example VI, this in vitro inhibition of cJun binding was ligand independent. The inhibition of Jun binding activity is a specific effect of each receptor because pre-incubation of the cell-free translated RARβ with anti-RAR antibodies prevented this inhibition, while pre-incubation with anti-GR or preimmune serum had no effect. Likewise, the inhibitory activity of cell-free translated GR is inhibited by anti-GR antibodies, but not by anti-RAR or preimmune serum. […] We therefore investigated whether the binding of the heterodimers could also be inhibited by the RAR.

Another test relates to collagenase AP-1 site. Nature of the test: Gel retardation assay, binding to DNA fragment containing the collagenase AP-1 site. The following applies: in vitro synthesized protein, 32P-labelled fragment. The procedure:
In vitro synthesized glucocorticoid receptor (GR) and retinoic acid receptor (RAR) were incubated with ^32P-labelled DNA fragment derived from −73 COL-CAT by Hind III and Bam HI digestion. Protein-DNA complex was analyzed by gel retardation assay. Control represents the binding of unprogrammed reticulocyte lysate.
Gel retardation experiments were carried out with a 60 bp DNA fragment containing the collagenase AP-1 site.

The next test has as its target T2, RARβ binding to RARE (Homo sapiens, UniProt P10826).
T2 construct: made in house; host or cells: in vitro translation (reticulocyte lysate)
T2 sequence (P10826 1-455): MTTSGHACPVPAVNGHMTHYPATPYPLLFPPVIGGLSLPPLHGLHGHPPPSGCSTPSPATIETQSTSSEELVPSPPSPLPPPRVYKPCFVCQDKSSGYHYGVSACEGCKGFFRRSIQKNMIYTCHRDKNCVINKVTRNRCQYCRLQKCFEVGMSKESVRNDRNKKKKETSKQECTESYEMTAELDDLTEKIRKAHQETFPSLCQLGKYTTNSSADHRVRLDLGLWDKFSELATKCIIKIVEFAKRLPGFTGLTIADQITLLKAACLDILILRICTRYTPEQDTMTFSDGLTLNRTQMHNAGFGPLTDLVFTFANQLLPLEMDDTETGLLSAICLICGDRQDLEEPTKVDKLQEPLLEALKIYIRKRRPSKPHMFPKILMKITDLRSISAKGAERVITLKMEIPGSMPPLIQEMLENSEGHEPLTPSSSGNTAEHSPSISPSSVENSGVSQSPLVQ
Kind of test: Gel retardation assay, effect on RARβ binding to RARE. To be noted: bacterially produced cJun pre-incubated with RARβ. The method, then:
In vitro synthesized RAR protein was incubated with ^32P-labelled DNA fragment containing one copy of RARE. The binding of RAR on RARE was analyzed by gel retardation assay. […] C represents the binding of unprogrammed reticulocyte lysate in FIG. 5. To test the effect of cJun protein on RAR binding, excess amount of bacterial expressed Jun protein was incubated with RAR at 37° C. for 15 minutes before the addition of DNA. When anti-cJun (a cJun) was used, it was incubated with Jun protein at room temperature for 45 minutes before mixing with RAR protein.
This inhibition was specific as it was prevented by pre-incubation of cJun with anti-Jun antibodies.

T1 sequence (P05412 whole entry): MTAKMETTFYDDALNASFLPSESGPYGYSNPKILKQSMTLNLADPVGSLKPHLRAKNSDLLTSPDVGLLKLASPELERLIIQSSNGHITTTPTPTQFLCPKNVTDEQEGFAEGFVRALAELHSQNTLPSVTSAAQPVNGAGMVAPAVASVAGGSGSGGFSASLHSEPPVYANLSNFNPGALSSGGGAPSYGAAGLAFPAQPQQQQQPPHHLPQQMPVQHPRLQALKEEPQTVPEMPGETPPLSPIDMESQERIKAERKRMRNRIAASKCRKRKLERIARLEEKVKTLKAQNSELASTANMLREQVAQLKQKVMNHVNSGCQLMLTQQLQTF

Turning to `CC1=C(/C=C/C(C)=C/C=C/C(C)=C/C(=O)O)C(C)(C)CCC1` [RA, retinoic acid], the “concentration required for maximal repression of TPA induced activity of -73 Col-CAT” value in test [1] is recorded as 10^−6 M. Moreover, the IC50 in test [1] (Homo sapiens, read-out: half maximal inhibition of TPA induced activity of -73 Col-CAT by RARβ) amounted to 1 nM. Further, the “effect on -63Col-CAT activity” value in test [2] is recorded as “no effect”.

With `N[C@@H](Cc1cc(I)c(Oc2ccc(O)c(I)c2)c(I)c1)C(=O)O` [T3], in test [3], the “repression of TPA collagenase promoter activity” value is listed as “dependant on the concentration of T3”.

As for “GR: in vitro synthesized glucocorticoid receptor”, the “inhibition of cJun binding to the AP-1 site” value (“inhibition of cJun binding” below) in test [4] is “also observed”. For the same molecule, in the test on collagenase AP-1 site, the “binding to collagenase AP-1 site or synthetic AP-1 site” value is given as “did not bind”.

For the molecule “cJun: bacterially produced or in vitro translated cJun protein, AP-1 component”, the “inhibition of RARβ DNA binding activity on RARE” value in the test with RARβ binding to RARE was “inhibited its DNA binding activity in a concentration dependent manner”. Further, in the test on collagenase AP-1 site, the “binding to collagenase AP-1 site or synthetic AP-1 site” value is recorded as “specific binding”.

B1: RARβ: in vitro synthesized (cell-free translated) retinoic acid receptor β protein (protein, UniProt P10826 1-455, looked up)
Retinoic acid receptor beta: MTTSGHACPVPAVNGHMTHYPATPYPLLFPPVIGGLSLPPLHGLHGHPPPSGCSTPSPATIETQSTSSEELVPSPPSPLPPPRVYKPCFVCQDKSSGYHYGVSACEGCKGFFRRSIQKNMIYTCHRDKNCVINKVTRNRCQYCRLQKCFEVGMSKESVRNDRNKKKKETSKQECTESYEMTAELDDLTEKIRKAHQETFPSLCQLGKYTTNSSADHRVRLDLGLWDKFSELATKCIIKIVEFAKRLPGFTGLTIADQITLLKAACLDILILRICTRYTPEQDTMTFSDGLTLNRTQMHNAGFGPLTDLVFTFANQLLPLEMDDTETGLLSAICLICGDRQDLEEPTKVDKLQEPLLEALKIYIRKRRPSKPHMFPKILMKITDLRSISAKGAERVITLKMEIPGSMPPLIQEMLENSEGHEPLTPSSSGNTAEHSPSISPSSVENSGVSQSPLVQ
With B1, the “inhibition of cJun binding” value in test [4] is “significant inhibition”. In addition, in the test with collagenase AP-1 site, the “binding to collagenase AP-1 site or synthetic AP-1 site” value was “did not bind”.

B2: RARγ: in vitro synthesized (cell-free translated) retinoic acid receptor γ protein (protein, UniProt P13631 1-454, looked up)
Retinoic acid receptor gamma: MATNKERLFAAGALGPGSGYPGAGFPFAFPGALRGSPPFEMLSPSFRGLGQPDLPKEMASLSVETQSTSSEEMVPSSPSPPPPPRVYKPCFVCNDKSSGYHYGVSSCEGCKGFFRRSIQKNMVYTCHRDKNCIINKVTRNRCQYCRLQKCFEVGMSKEAVRNDRNKKKKEVKEEGSPDSYELSPQLEELITKVSKAHQETFPSLCQLGKYTTNSSADHRVQLDLGLWDKFSELATKCIIKIVEFAKRLPGFTGLSIADQITLLKAACLDILMLRICTRYTPEQDTMTFSDGLTLNRTQMHNAGFGPLTDLVFAFAGQLLPLEMDDTETGLLSAICLICGDRMDLEEPEKVDKLQEPLLEALRLYARRRRPSQPYMFPRMLMKITDLRGISTKGAERAITLKMEIPGPMPPLIREMLENPEMFEDDSSQPGPHPNASSEDEVPGGQGKGGLKSPA
With B2, the “inhibition of cJun binding” value in test [4] is on record as “significant inhibition”.

The record behind these values is US6683047B1, “Method of inhibiting transcription utilizing nuclear receptors” (The Burnham Institute, priority 1990, dated 2004).
